Test results taken from the supplement of paper PMC5908809.

Assays:
[1] = test system: normal primary NK cells, pool 2 (3 donors) (IL-2 2.5 ng/mL); assay: percent inhibition of viability; higher = more inhibition; conditions: 72 h
[2] = test system: normal primary NK cells, pool 3 (3 donors) (IL-2 2.5 ng/mL); assay: as above; conditions: 72 h
[3] = test system: IMC-1 (IL-2 20 ng/mL); assay: as above; conditions: 72 h
[4] = test system: normal NK cells expanded with K562-aAPC; assay: as above; conditions: 72 h, IL-2 2.5 ng/mL
Protocol: (§1)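 Drug sensitivity and resistance testing on K562-aAPC-expanded normal NK cells: 5 concentrations (10-fold steps over a 10,000-fold range), 72 h at 37 °C, viability by CellTiter-Glo normalised to DMSO and benzethonium chloride controls; DSS from the fitted curve.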

[5] = test system: normal NK cells expanded with K562-aAPC; assay: drug sensitivity score (DSS) (DSS units); higher = more sensitive; extreme values may be limits of the assay; conditions: 72 h; IL-2 2.5 ng/mL
Protocol: as §1

[6] = test system: normal primary NK cells, pool 2 (3 donors) (IL-2 2.5 ng/mL); assay: as above; conditions: 72 h
[7] = test system: normal primary NK cells, pool 3 (3 donors) (IL-2 2.5 ng/mL); assay: as above; conditions: 72 h
[8] = test system: IMC-1 (IL-2 20 ng/mL); assay: as above; conditions: 72 h

Structure (SMILES)	percent inhibition of viability ([1]; 10 nM) [%]	percent inhibition of viability ([1]; 100 nM) [%]	percent inhibition of viability ([1]; 1000 nM) [%]	percent inhibition of viability ([1]; 10000 nM) [%]	percent inhibition of viability ([1]; 100000 nM) [%]	percent inhibition of viability ([2]; 10 nM) [%]	percent inhibition of viability ([2]; 100 nM) [%]	percent inhibition of viability ([2]; 1000 nM) [%]	percent inhibition of viability ([2]; 10000 nM) [%]	percent inhibition of viability ([2]; 100000 nM) [%]	percent inhibition of viability ([3]; 10 nM) [%]	percent inhibition of viability ([3]; 100 nM) [%]	percent inhibition of viability ([3]; 1000 nM) [%]	percent inhibition of viability ([3]; 10000 nM) [%]	percent inhibition of viability ([3]; 100000 nM) [%]	percent inhibition of viability ([4]; 10 nM) [%]	percent inhibition of viability ([4]; 100 nM) [%]	percent inhibition of viability ([4]; 1000 nM) [%]	percent inhibition of viability ([4]; 10000 nM) [%]	percent inhibition of viability ([4]; 100000 nM) [%]	drug sensitivity score [5]	drug sensitivity score [6]	drug sensitivity score [7]	drug sensitivity score [8]	percent inhibition of viability ([1]; 1 nM) [%]	percent inhibition of viability ([2]; 1 nM) [%]	percent inhibition of viability ([3]; 1 nM) [%]	percent inhibition of viability ([4]; 1 nM) [%]	percent inhibition of viability ([1]; 1000000 nM) [%]	percent inhibition of viability ([2]; 1000000 nM) [%]	percent inhibition of viability ([3]; 1000000 nM) [%]	percent inhibition of viability ([4]; 1000000 nM) [%]
O=C(O)C1(C(=O)O)CCC1.[NH2-].[NH2-].[Pt+2] [Carboplatin] (max concentration tested 100000 nM)	1.54	-0.94	13	16.1	60.8	-8.77	-1.51	10.8	18.1	64.7	-6.21	-0.67	1.27	61.7	100	-8.39	-5.27	0.62	19.3	100	8.66	5.27	5.79	12.8								
C[C@]12CC[C@@H]3c4ccc(OC(=O)N(CCCl)CCCl)cc4CC[C@H]3[C@@H]1CC[C@@H]2O [Estramustine] (max concentration tested 10000 nM)	-2.77	-6.62	-4.76	-8.48		-4.19	-7.49	-10.1	-9.53		-1.35	-3.43	-6.09	-6.87		-3.58	-7.28	-7.29	-6.53		0	0	0	0	10	-8.4	-0.43	-5.93				
Cc1cnc(Nc2ccc(OCCN3CCCC3)cc2)nc1Nc1cccc(S(=O)(=O)NC(C)(C)C)c1 [Fedratinib] (max concentration tested 10000 nM)	-4.41	13.2	72.5	100		-2.87	15.8	68.8	100		-6.37	-28.8	55	101		-2.82	11.2	73.8	101		15.3	15.3	14.9	12.1	-1.22	-3.74	-6.81	-1.65				
COc1cc(C(=O)O)ccc1NC(=O)[C@@H]1N[C@@H](CC(C)(C)C)[C@](C#N)(c2ccc(Cl)cc2F)[C@H]1c1cccc(Cl)c1F [Idasanutlin] (max concentration tested 10000 nM)	-4.67	32.8	82.7	97.8		-3.17	33.5	68.8	95.6		0.8	-0.27	12.7	40.4		13.4	39.6	95.2	101		21.9	19.3	17	3.88	-8.25	-6.26	-3	6.65				
CC(=O)O[C@]1(C(C)=O)CC[C@H]2[C@@H]3C=C(C)C4=CC(=O)CC[C@]4(C)[C@H]3CC[C@@]21C [Megestrol acetate] (max concentration tested 10000 nM)	3.68	-0.74	11.2	49.3		-5.63	0.83	2.52	24.3		-1.23	-4.32	-2.13	10.4		-5.98	7.94	13.9	28.7		2.54	4.38	1.28	0	-3.39	-8.34	-3.51	-2.74				
Nc1nc2[nH]cc(CCc3ccc(C(=O)N[C@@H](CCC(=O)O)C(=O)O)cc3)c2c(=O)[nH]1 [Pemetrexed] (max concentration tested 10000 nM)	-8.75	-3.95	-3.15	-2.1		-6.65	-7.52	-11.4	-7.17		-0.76	27.5	93	94.2		-7.62	29.1	32.5	32.7		8.95	0	0	20.9	-0.42	-6.87	-2.55	-3.65				
CC[C@H](C)C(=O)O[C@H]1C[C@H](O)C=C2C=C[C@H](C)[C@H](CC[C@@H](O)C[C@@H](O)CC(=O)O)[C@H]21 [Pravastatin] (max concentration tested 10000 nM)	-4.79	10.9	-9.05	10.6		-6.44	1.67	-7.95	-0.67		3.55	-0.89	2.49	1.04		-3.35	0.49	5.71	4.92		0	0	0	0	-8.99	-14.4	1.44	-2.35				
CCCC(CCC)C(=O)O [Valproic acid] (max concentration tested 1000000 nM)		-3.47	-9.08	-3.52	0.62		-5.69	-8.36	-12.2	-3.8		-0.33	-1.48	-8.1	-1.23		-5.06	-5.78	-6.14	2.07	2	1.5	0.1	0.34					31.7	14.2	17.4	35.9
